This is an account of results in patent publication US20050026899A1, “Metabolite” (priority 2003, published 2005).

What all share (set-up): species or system Mice
One assay addresses T1, dopamine D2 receptor (Mus musculus, UniProt P61168).
T1 construct: serotonin (5-HT2) receptors relative to dopamine (D2) receptors in the brain; from tissue; host or cells: brain (rodent)
The experiment in a line: binding affinity for dopamine D2 receptor. The text has this:
(§1) An assessment of dopamine antagonism was made in rodent models. The methods and procedures used can be found in J. Med. Chem., 44 (3), 372-389, 2001 and are incorporated herein by reference. […] It is this combination of serotonin and dopamine receptor antagonism, with higher relative 5-HT2 to D2 receptor affinity that indicates the compound of Formula I as a potent atypical antipsychotic. J. Goldstein, Quetiapine Fumarate (Seroquel): a new atypical antipsychotic, 35(3) Drugs of Today 193-210 (1999). […] Low potency at the D2 receptor is considered advantageous since it a characteristic shared with Clozapine.

For another assay, the target named is T2, dopamine D1 receptor (Mus musculus, UniProt Q61616).
T2 construct: from tissue
T2 sequence (Q61616 whole entry): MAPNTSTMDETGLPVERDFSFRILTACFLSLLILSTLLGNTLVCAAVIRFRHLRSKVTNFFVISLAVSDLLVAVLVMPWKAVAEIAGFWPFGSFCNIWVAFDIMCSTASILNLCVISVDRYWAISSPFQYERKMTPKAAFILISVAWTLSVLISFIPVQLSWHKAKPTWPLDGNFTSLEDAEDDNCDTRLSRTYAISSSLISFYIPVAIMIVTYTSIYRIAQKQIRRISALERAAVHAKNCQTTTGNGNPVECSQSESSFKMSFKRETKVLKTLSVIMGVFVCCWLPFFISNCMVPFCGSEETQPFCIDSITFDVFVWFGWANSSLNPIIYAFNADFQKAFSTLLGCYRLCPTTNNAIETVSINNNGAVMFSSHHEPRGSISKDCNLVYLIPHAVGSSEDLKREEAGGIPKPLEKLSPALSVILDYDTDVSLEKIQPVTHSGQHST
As to the kind of experiment: binding affinity for dopamine D1 receptor. To be noted: tested as the dihydrochloride salt; read-out: binding affinity for dopamine D1 receptor (K1).
Description: as §1

For assay [1], the target named is T3, brain serotonin 5-HT2 receptor (Mus musculus, UniProt P35363).
T3 construct: from tissue; host or cells: brain (rodent)
T3 sequence (P35363 whole entry): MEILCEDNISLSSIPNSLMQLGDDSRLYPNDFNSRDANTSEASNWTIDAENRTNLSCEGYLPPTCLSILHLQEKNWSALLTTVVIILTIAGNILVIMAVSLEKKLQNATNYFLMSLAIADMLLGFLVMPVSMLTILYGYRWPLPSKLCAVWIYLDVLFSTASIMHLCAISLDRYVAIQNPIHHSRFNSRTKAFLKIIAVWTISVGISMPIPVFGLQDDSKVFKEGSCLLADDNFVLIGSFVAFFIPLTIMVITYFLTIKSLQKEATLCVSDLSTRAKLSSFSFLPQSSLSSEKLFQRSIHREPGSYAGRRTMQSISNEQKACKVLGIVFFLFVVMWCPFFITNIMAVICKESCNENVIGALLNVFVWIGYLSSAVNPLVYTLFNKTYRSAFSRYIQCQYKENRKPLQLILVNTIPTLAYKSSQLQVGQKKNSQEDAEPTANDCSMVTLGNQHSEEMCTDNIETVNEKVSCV
The experiment in a line: binding affinity for brain serotonin 5-HT2 receptor.
Description: as §1

T1 sequence (P61168 whole entry): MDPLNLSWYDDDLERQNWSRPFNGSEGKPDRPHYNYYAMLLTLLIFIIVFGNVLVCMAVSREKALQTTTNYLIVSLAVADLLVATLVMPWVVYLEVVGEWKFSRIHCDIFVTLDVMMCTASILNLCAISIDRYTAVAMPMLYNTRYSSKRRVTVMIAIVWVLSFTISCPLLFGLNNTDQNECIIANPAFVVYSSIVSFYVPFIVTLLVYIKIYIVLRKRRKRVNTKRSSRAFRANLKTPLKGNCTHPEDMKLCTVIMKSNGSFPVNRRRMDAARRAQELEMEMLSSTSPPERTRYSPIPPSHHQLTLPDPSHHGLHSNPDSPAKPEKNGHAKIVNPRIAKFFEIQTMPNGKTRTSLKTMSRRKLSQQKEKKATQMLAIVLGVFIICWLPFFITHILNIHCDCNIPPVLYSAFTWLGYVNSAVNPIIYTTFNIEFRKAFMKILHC

For `Oc1ccc2c(c1)Sc1ccccc1C(N1CCNCC1)=N2` [Formula I, 11-piperazin-1-yldibenzo[b,f][1,4]thiazepin-7-ol], the “affinity for D2 (in words)” value on dopamine D2 receptor is “moderate affinity”. For the same molecule, the Ki on dopamine D2 receptor (tested as the dihydrochloride salt, read-out: binding affinity for dopamine D2 receptor (K1)) came to 35 nM; on dopamine D1 receptor, 288 nM; in assay [1] (tested as the dihydrochloride salt, brain receptor, read-out: binding affinity for brain serotonin 5-HT2 receptor (K1)), 6.5 nM. For the same molecule, in assay [1] (as the dihydrochloride salt, 5-HT2 versus D2), the “affinity for serotonin (5-HT2) receptors relative to dopamine (D2) receptors in the brain” value is reported as “higher affinity”.
